Assays:
NF-κB [1] = test: NF-κB-dependent luciferase reporter (κB.BG.Luc) in myometrial cells; type: cell-based, human; conditions: for IL-1-induced NF-κB transcriptional activity: treated 2 h, IL-1β 1 ng/ml 6 h
Method: Myometrial cells were transiently transfected with the NFκB-dependent reporter construct κB.BG.Luc, treated with 15dPGJ2 or vehicle for 2 h, +/−IL-1β(1 ng/ml) for 6 h. […] Values are normalised for b-gal reporter activity. (NS=nonstimulated).
Myometrial cells were transfected with […] κB.BG.Luc reporter and 200 ng PPAR-γ expression vector and treated with 15d-PGJ2 for 2 h followed by IL-1β (1 ng/ml) for 6 h. Values are normalised for β-galactosidase reporter activity. (NS=nonstimulated).
Myometrial tissue was collected at term from the upper margin of uterine incision at the time of lower segment caesarean section either prior to the onset of labour (L−) or […] (L+). L+ samples were collected by Dr Mark Johnson and Dr S Soorrana at Chelsea & Westminster Hospital. Myometrial tissue was dissected, rinsed in PBS, and digested in serum-free DMEM containing 15 mg/ml collagenase 1A (Sigma), 15 mg/ml collagenase X, and 50 mg/ml bovine serum albumin for 45 min at 37° C. The cell suspension was filtered through a cell strainer, centrifuged at 400 g for 5 min, and the pellet re-suspended and plated out in DMEM, 10% FCS (Helena BioScience), 1% L-glutamine, 1% penicillin-streptomycin. Cells were used between passage numbers 1-4.
pGL3.6 κB.BG.luc: a NF-κB-dependent reporter construct with 6 copies of the NF-κB binding site.
Cells were co-transfected with the renilla vector pRL-CMV or a β-galactosidase vector pCH110 as internal controls for transfection efficiencies.

NF-κB [2] = test: EMSA of NF-κB DNA binding in nuclear extracts of treated amnion cells; type: cell-based, human; conditions: L− and L+ amnion cells, treated 2 h, IL-1β stimulation 15 min
Method: Electro-mobility shift assay (EMSA) analysis of NF-κB DNA binding in nuclear protein extracts from (A) myometrial cells, (B) L+amnion cells, and (C) L− amnion cells treated with 15dPGJ2 or vehicle for 2 h+/−IL-1b stimulation (15 min). Consensus kB probe used to assess NF-κB DNA binding, and consensus Oct-1 probe used as control.
EMSA analysis of nuclear protein extracts from amnion cells treated with 15dPGJ2+/−GW9662 or vehicle for 2 h followed by IL-1β stimulation (15 min). Consensus kB probe used to assess NFκB DNA binding, consensus Oct-1 probe used as control.
EMSA analysis of nuclear protein extracts from (A) myometrial cells, and (B) amnion cells treated with PGA1 or vehicle for 2 h followed by IL-1b stimulation (15 min). Consensus κB probe used to assess NFκB DNA binding, consensus Oct-1 probe used as control. For supershift analysis, extracts were preincubated with antibodies against p50 or p65.
EMSA analysis of nuclear protein extracts from (A) L− amnion cells and (B) myometrial cells treated with vehicle, PGE2 or IL-1β. Consensus κB probe used.
Placentae were obtained from patients at term either at elective Caesarean section prior to labour (L−) or following spontaneous labour onset and vaginal delivery (L+). Amnion cells were prepared as described in Bennett et al., (1989). Briefly, the amnion was separated from the placenta, washed 3× in PBS, cut into strips, and incubated in 0.51 mM EDTA in PBS for 15 min. The strips were washed in PBS 2× and digested with 2.5 mg/ml dispase in serum-free DMEM for 35 min at 37° C. The amnion was then shaken vigorously in DMEM, 10% FCS to dissociate the cells, the remaining strips discarded, and the cell suspension pelleted at 175 g for 10 min and cultured in DMEM, 10% FCS (Sigma), 1% L-glutamine, 1% penicillin-streptomycin.
Nuclear and cytosolic protein extracts were obtained from cultured amnion cells as described by Schreiber et al (1989). For nuclear/cytosolic fractionation, confluent cell monolayers were scraped and lysed using a buffer containing 10 mM HEPES, 10 mM KCl, 0.1 mM EDTA, 0.1 mM EGTA, 2 mM DTT, 1% (v/v) NP-40 and complete protease inhibitor tablets (CPIs, Roche), diluted to manufacturer's instructions. Cell lysates were incubated on ice for 10 min and NP-40 added to a final concentration of 1% (v/v). Lysates were vortexed for 10 secs and centrifuged for 30 secs at 4° C., 12000 g. The supernatants were retained as the cytosolic protein extracts. The pellets were resuspended in buffer containing 10 mM HEPES, 10 mM KCl, 0.1 mM EDTA, 0.1 mM EGTA, 2 mM DTT, 400 mM NaCl, 1% NP-40 (v/v) and CPIs. Samples were shaken vigorously for 15 min in an ice bath. The nuclear protein extracts were obtained in the supernatant following a 5 min centrifugation at 4° C., 12000 g.
Sense and antisense strands (175 nmole/ml each) were incubated in annealing buffer (10 mM Tris-HCl pH7.5, 100 mM NaCl, 1 mM EDTA) for 10 min at 65° C., and allowed to cool at room temperature for 2 h. 3.5 pmole double-stranded oligonucleotides were end-labelled with 0.37 MBq ^32P(γATP) by incubating for 30 min at 37° C. with T4 polynucleotide kinase. Labelled oligonucleotides were recovered by centrifugation at […] for 2 min through MicroSpin G-25 or G-50 sephadex columns (Amersham Biosciences). […]

SMILES | Effect of PPARγ overexpression on 15d-PGJ2 inhibition of NF-κB transcriptional activity (NF-κB [1]; 200 ng PPAR-γ expression vector) | IL-1-induced NF-κB transcriptional activity (NF-κB [1]) | IL-1β-induced NF-κB DNA binding (NF-κB [2])
CCCCCC=CC=C1C(=O)C=C[C@@H]1CC=CCCCC(=O)O [15d-PGJ2, 15-deoxy-Δ^12,14prostaglandin J2] | did not promote | inhibited | inhibited
CCCCC[C@H](O)/C=C/[C@H]1C=CC(=O)[C@@H]1CCCCCCC(=O)O [PGA1, prostaglandin A1] |  | reduced to basal levels | able to inhibit

Source: patent US20070270392A1, “Use of a Cyclopentenone Prostaglandin for Delaying the Onset and/or Preventing the Continuation of Labour” (Imperial College Innovations Limited, priority 2003, published 2007)
